Results: patent publication US20120270844A1, “METHODS FOR TREATING ALZHEIMER'S DISEASE” (aFRAXis, Inc., priority 2009, published 2012)

Tests used:
Type in all cases: biochemical
PAK4 = PAK4 (Homo sapiens, UniProt O96013); assay: Z'Lyte fluorescence-based (FRET) PAK kinase assay, PAK4; conditions: 5 μM ATP
Protocol: (§1) A fluorescence-based assay format is used to determine IC50 values of test compounds in vitro. Purified PAK kinase is incubated with ATP, and a test compound at various concentrations and a substrate peptide containing two fluorophores. In a second step, the reaction mix is incubated with a site-specific protease that cleaves non-phosphorylated bat not phosphorylated substrate peptide, disrupting the FRET signal generated by the two fluorophores in the cleaved peptide (Z′Lyte™ Kinase assay platform; Life Technologies).
(§2) Reagents: 50 mM HEPES, pH 7.5; 0.01% BRIJ-35; […]; 1 mM EGTA, 2 uM substrate peptide Ser/Thr20 (proprietary Life Technologies Sequence), PAK enzyme [2.42-30.8 ng for PAK1, 0.29-6 ng for PAK2, 1.5-20 ng for PAK3 and 0.1-0.86 ng for PAK4; actual enzyme amounts depend on lot activity of the enzyme preparation]
(§3) Test compounds are dissolved in DMSO at various concentrations; the final DMSO concentration in the assay reaction is 1%.
(§4) ATP concentration at […] apparent is used in the assay [50 ┌M ATP for PAK1 assay, 75 ┌M ATP for PAK2 assay, 100 μM ATP for PAK3 assay, 5 μM ATP for PAK4 assay] in a total assay volume of 10 μl. Assay reactions are incubated at room temperature for 1 hr. Following the kinase reaction, 5 μl of 1:256 dilution of development solution A (Life Technologies) is added and the reaction mix is incubated for an additional 1 hr at room temperature.
(§5) Plates are analyzed in a standard fluorescence plate reader (Tecan or equivalent) using an excitation wavelength of 400 nn and emission wavelengths of 445 nm and 520 nm.
(§6) Inhibition of kinase reaction is determined by emission ratio=emission@445 nm/emission@520 nm
(§7) A fluorescence-based assay format is used to determine IC50 values of test compounds in vitro. Purified PAK kinase is incubated with ATP, and a test compound at various concentrations and a substrate peptide containing two fluorophores. In a second step, the reaction mix is incubated with a site-specific protease that cleaves non-phosphorylated but not phosphorylated substrate peptide, disrupting the FRET signal generated by the two fluorophores in the cleaved peptide (Z'Lyte™ Kinase assay platform Life Technologies).
(§8) Reagents: 50 mM HEPES, pH 7.5; 0.01% BRIJ-35; 10 mM MgCl2; 1 mM EGTA, 2 uM substrate peptide Ser/Thr20 (proprietary Life Technologies Sequence), PAK enzyme [2.42-30.8 ng for PAK1, 0.29-6 ng for PAK2, 1.5-20 ng for PAK3 and 0.1-0.86 ng for PAK4; actual enzyme amounts depend on lot activity of the enzyme preparation]
(§9) ATP concentration at Km apparent is used in the assay [50 μMATP for PAK1 assay, 75 µM ATP for PAK2 assay, 100 μM ATP for PAK3 assay, 5 μM ATP for PAK4 assay] in a total assay volume of […] Assay reactions are incubated at room temperature for 1 hr. Following the kinase reaction. […] of 1:256 dilution of development solution A (Life Technologies) is added and the reaction mix is incubated for an additional 1 hr at room temperature.
(§10) Plates are analyzed in a standard fluorescence plate reader (Teem or equivalent) using an excitation wavelength of 400 nm and emission wavelengths of 445 nm and 520 nm.

PAK3 = PAK3 (Homo sapiens, UniProt O75914); assay: Z'Lyte fluorescence-based (FRET) PAK kinase assay, PAK3; conditions: 100 μM ATP
Protocol: as §1, §2, §3, §4, §5, §6, §7, §8, §9, §10

PAK2 = PAK2 (Homo sapiens, UniProt Q13177); assay: Z'Lyte fluorescence-based (FRET) PAK kinase assay, PAK2
Protocol: as §1, §2, §3, §4, §5, §6, §7, §8, §9, §10

PAK1 = PAK1 (Homo sapiens, UniProt Q13153); assay: Z'Lyte fluorescence-based (FRET) PAK kinase assay, PAK1; conditions: 50 μM ATP
Protocol: as §1, §2, §3, §4, §5, §6, §7, §8, §9, §10

[1] = Table 1 of Example 29 (own compound numbering)
[2] = Table 1 of Example 29 (own compound numbering), 75 µM ATP
[3] = Table 1 of Example 100, 75 μM ATP

PAK3, sequence (O75914 whole entry): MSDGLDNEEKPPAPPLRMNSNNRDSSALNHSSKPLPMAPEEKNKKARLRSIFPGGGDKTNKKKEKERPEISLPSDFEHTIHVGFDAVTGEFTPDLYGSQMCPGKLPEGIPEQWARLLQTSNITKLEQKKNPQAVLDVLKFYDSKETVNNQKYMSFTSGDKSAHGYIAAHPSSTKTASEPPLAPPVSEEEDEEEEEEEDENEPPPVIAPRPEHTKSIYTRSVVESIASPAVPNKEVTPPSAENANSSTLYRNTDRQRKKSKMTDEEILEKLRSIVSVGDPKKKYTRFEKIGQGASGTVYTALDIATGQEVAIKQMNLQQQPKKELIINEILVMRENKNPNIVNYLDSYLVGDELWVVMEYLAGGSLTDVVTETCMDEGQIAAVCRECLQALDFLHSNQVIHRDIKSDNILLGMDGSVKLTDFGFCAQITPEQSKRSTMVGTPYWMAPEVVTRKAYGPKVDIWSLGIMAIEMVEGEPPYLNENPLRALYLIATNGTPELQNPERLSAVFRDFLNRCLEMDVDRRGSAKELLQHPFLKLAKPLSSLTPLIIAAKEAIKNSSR
PAK4, sequence (O96013 whole entry): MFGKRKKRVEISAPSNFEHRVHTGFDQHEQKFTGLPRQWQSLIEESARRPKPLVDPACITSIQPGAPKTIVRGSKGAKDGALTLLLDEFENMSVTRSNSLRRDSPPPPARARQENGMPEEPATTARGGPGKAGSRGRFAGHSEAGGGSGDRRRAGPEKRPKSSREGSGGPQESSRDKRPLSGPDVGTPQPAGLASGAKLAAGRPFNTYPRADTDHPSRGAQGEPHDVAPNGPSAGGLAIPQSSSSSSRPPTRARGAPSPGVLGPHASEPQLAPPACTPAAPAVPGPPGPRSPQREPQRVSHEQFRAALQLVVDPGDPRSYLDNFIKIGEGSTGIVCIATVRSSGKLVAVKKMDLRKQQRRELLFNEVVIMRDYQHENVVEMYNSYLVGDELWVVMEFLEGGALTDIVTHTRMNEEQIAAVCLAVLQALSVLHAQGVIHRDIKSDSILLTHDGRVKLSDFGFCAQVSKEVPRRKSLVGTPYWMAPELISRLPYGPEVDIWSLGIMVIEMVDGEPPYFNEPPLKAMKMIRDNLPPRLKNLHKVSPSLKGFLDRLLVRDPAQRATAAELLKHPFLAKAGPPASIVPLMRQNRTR
PAK2, sequence (Q13177 whole entry): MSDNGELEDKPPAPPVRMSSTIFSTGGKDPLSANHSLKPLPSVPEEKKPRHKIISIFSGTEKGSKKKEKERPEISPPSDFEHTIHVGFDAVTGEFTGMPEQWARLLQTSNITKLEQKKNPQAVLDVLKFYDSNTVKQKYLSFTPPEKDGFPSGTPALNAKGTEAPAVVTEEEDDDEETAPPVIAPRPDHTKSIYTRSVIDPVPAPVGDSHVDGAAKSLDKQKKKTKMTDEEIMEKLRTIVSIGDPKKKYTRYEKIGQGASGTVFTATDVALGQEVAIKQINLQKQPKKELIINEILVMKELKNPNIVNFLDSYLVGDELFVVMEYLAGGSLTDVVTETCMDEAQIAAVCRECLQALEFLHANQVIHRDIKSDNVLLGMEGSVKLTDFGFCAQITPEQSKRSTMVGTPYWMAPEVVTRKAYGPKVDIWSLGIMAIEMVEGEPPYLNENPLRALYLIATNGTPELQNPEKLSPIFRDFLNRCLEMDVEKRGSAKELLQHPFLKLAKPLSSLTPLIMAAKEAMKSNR
PAK1, sequence (Q13153 whole entry): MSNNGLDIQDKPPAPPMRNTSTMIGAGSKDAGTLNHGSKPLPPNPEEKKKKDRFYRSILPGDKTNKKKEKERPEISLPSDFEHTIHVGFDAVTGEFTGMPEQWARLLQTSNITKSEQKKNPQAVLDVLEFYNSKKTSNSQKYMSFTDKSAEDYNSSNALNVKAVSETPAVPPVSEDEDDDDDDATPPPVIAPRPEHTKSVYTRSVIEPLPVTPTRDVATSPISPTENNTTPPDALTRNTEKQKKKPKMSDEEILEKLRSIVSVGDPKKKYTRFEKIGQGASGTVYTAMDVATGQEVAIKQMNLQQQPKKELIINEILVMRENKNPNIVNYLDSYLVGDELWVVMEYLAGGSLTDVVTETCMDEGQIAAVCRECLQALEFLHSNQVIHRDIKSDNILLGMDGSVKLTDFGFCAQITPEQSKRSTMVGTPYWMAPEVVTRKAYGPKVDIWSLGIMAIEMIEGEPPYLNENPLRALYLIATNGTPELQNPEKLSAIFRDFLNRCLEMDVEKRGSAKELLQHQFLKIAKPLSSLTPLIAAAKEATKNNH

SMILES	IC50 (PAK4; [1]) [nM]	IC50 (PAK3; [1]) [nM]	IC50 (PAK2; [2]) [nM]	IC50 (PAK1; [1]) [nM]	IC50 (PAK4; Table 1 of Example 100) [nM]	IC50 (PAK3; Table 1 of Example 100) [nM]	IC50 (PAK2; [3]) [nM]	IC50 (PAK1; Table 1 of Example 100) [nM]
CN1CCN(c2ccc(Nc3ncc4ccc(=O)n(CC(=O)c5ccccc5)c4n3)cc2)CC1 [Compound 104]	1000 to 10000	1000 to 10000	1000 to 10000	1000 to 10000				
CN1CCN(c2ccc(Nc3ncc4ccc(=O)n(C5CCc6ccccc65)c4n3)cc2)CC1 (centres unmarked) [Compound 6]					1000 to 10000	1000 to 10000	1000 to 10000	< 1000
O=c1ccc2cnc(Nc3ccc(NC4CCNCC4)cc3)nc2n1Cc1ccccc1C(F)(F)F [Compound 8]					< 1000	< 1000	< 1000	< 1000
CN1CCN(c2ccc(Nc3ncc4ccc(=O)n(Cc5ccccc5C(F)(F)F)c4n3)cc2)CC1 [Compound 42]					< 1000	< 1000	< 1000	< 1000
O=c1ccc2cnc(Nc3ccc(NC4CCCNC4)cc3)nc2n1Cc1ccccc1C(F)(F)F (centres unmarked) [Compound 7]					< 1000	< 1000	< 1000	< 1000
CN(C)CC(c1ccccc1)n1c(=O)ccc2cnc(Nc3ccc(N4CCN(C)CC4)cc3)nc21 (centres unmarked) [Compound 19]					> 10000	> 10000	> 10000	> 10000
CN1CCN(c2ccc(Nc3ncc4ccc(=O)n(CC(=O)c5ccccc5)c4n3)cc2)CC1 [Compound 50]					1000 to 10000	1000 to 10000	1000 to 10000	1000 to 10000
O=c1ccc2cnc(Nc3ccc(N4CCNCC4)cc3)nc2n1Cc1ccccc1C(F)(F)F [Compound 9]					< 1000	< 1000	< 1000	< 1000
CN1CCCC(Nc2ccc(Nc3ncc4ccc(=O)n(Cc5ccccc5C(F)(F)F)c4n3)cc2)C1 (centres unmarked) [compound 61]					< 1000	< 1000	< 1000	< 1000
O=c1ccc2cnc(Nc3ccc(OC4CCCNC4)cc3)nc2n1Cc1ccccc1C(F)(F)F (centres unmarked) [Compound 14]					< 1000	< 1000	< 1000	< 1000
CC(c1ccccc1)n1c(=O)ccc2cnc(Nc3ccc(N4CCN(C)CC4)cc3)nc21 (centres unmarked) [Compound 102]	1000 to 10000	> 10000	1000 to 10000	1000 to 10000				
CN1CCN(c2ccc(Nc3ncc4ccc(=O)n(Cc5c(F)cccc5[S+](C)[O-])c4n3)cc2)CC1 (centres unmarked) [Compound 139]	1000 to 10000	< 1000	1000 to 10000	< 1000				
O=c1c(-c2ccccc2)cc2cnc(Nc3ccc(NC4CCCNC4)cc3)nc2n1Cc1ccccc1C(F)(F)F (centres unmarked) [Compound 167]	1000 to 10000	< 1000	< 1000	< 1000				
CN1CCN(c2ccc(Nc3ncc4ccc(=O)n(CCc5ccccc5)c4n3)cc2)CC1 [Compound 103]	< 1000	1000 to 10000	< 1000	< 1000				
Cc1ccccc1Cn1c(=O)ccc2cnc(Nc3ccc(N4CCN(C)CC4)cc3)nc21 [Compound 117]	< 1000	< 1000	< 1000	< 1000				
COc1ccc(F)cc1Cn1c(=O)ccc2cnc(Nc3ccc(N4CCN(C)CC4)cc3)nc21 [Compound 108]	1000 to 10000	1000 to 10000	1000 to 10000	< 1000				
CN1CCN(c2ccc(Nc3ncc4ccc(=O)n(C5Cc6ccccc6C5)c4n3)cc2)CC1 [Compound 17]					< 1000	1000 to 10000	1000 to 10000	< 1000
CN1CCN(c2ccc(Nc3ncc4ccc(=O)n(C5CCCC5)c4n3)cc2)CC1 [Compound 1]					1000 to 10000	1000 to 10000	1000 to 10000	< 1000
Cc1cccnc1Cn1c(=O)ccc2cnc(Nc3ccc(N4CCN(C)CC4)cc3)nc21 [Compound 106]	1000 to 10000	> 10000	1000 to 10000	1000 to 10000				
CN1CCN(c2ccc(Nc3ncc4ccc(=O)n(C5CCC(C)(C)c6ccccc65)c4n3)cc2)CC1 (centres unmarked) [Compound 20]					1000 to 10000	1000 to 10000	< 1000	< 1000
O=c1ccc2cnc(Nc3ccc(N4CCNCC4)c(F)c3)nc2n1C1CCc2ccccc2C1 (centres unmarked) [Compound 22]					< 1000	< 1000	< 1000	< 1000
O=c1c(-c2ccccc2)cc2cnc(Nc3ccc(NC4CCCNC4)cc3)nc2n1Cc1ccccc1C(F)(F)F (centres unmarked) [compound 95]					1000 to 10000	< 1000	< 1000	< 1000
CN1CCN(c2ccc(Nc3ncc4ccc(=O)n(Cc5ccccc5SC(F)(F)F)c4n3)cc2)CC1 [Compound 43]					< 1000	< 1000	< 1000	< 1000
CN1CCN(c2ccc(Nc3ncc4ccc(=O)n(C5CCOc6ccccc65)c4n3)cc2)CC1 (centres unmarked) [Compound 15]					1000 to 10000	1000 to 10000	1000 to 10000	1000 to 10000
CN1CCN(c2ccc(Nc3ncc4ccc(=O)n(Cc5ccccc5-c5ncno5)c4n3)cc2)CC1 [Compound 127]	1000 to 10000	1000 to 10000	1000 to 10000	< 1000				
O=c1ccc2cnc(Nc3ccc(N4CCNCC4)cc3)nc2n1C1CCCc2ccccc21 (centres unmarked) [compound 61]	1000 to 10000	1000 to 10000	1000 to 10000	1000 to 10000				
CN1CCN(c2ccc(Nc3ncc4ccc(=O)n(Cc5ccccc5-n5cccn5)c4n3)cc2)CC1 [Compound 53]					1000 to 10000	1000 to 10000	1000 to 10000	< 1000
O=c1ccc2cnc(Nc3ccc(N4CCNCC4)c(F)c3)nc2n1C1Cc2ccccc2C1 [Compound 21]					< 1000	1000 to 10000	< 1000	< 1000
CN1CCN(c2ccc(Nc3ncc4ccc(=O)n([C@@H]5CCCc6ccccc65)c4n3)cc2)CC1 [Compound 10]					1000 to 10000	1000 to 10000	1000 to 10000	1000 to 10000
